This passage reports IC50 results from US20040006236A1, “Diaminopropionic acid derivatives” (priority 1999, published 2004).

SMILES strings stand for the structures.

The target in assay [1] is T1, ICAM-1 binding to immobilized Mac-1 (Homo sapiens, UniProt P05107+P11215).
T1 construct: made in house; host or cells: transfected 293 cells (Mac-1)
The experiment in a line: Mac-1/ICAM-1 screening assay (solid-phase ELISA). The following applies: read-out: Mac-1/ICAM-1 Protein-Protein Assay IC50. The method, boiled down:
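Competitive solid-phase ELISA: membrane Mac-1 from transfected 293 cells coated at 3 μg/mL in 20 mM Hepes pH 7.2/0.14 M NaCl/1 mM MnCl2; compounds (0.12 nM-20 μM, 1:4 series) plus 5dICAM-Ig (40 μg/mL, added) 2 h at 37° C. Bound ICAM-Ig detected with HRP anti-human IgG Fc, TMB, A450; IC50 reported.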
For orientation: An ELISA detects its analyte on a solid surface through an enzyme-linked reagent.

Assay [2] deals with Mac-1 and LFA-1-mediated neutrophil binding to immobilized ICAM-1. The experiment in a line: Neutrophil (Mac-1 and LFA-1)/ICAM-1 cell-based screening assay. The following applies: human neutrophils. In short, it runs like this:
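Human neutrophils, fluorescently labeled and fMLP-stimulated (10 μM, 5 min), preincubated 10 min at 37° C. with compound (final 0.38 nM-25 μM) at 1×10^6 cells/mL in RPMI/0.05% BSA/0.2 mM MnCl2. Cells then bound 30 min at 37° C. to plates coated with 5dICAM-Ig (human ICAM-1 extracellular domain-Fc). Bound cells read by fluorescence after washing.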

T1 sequence (P05107 23-769, other chains not shown): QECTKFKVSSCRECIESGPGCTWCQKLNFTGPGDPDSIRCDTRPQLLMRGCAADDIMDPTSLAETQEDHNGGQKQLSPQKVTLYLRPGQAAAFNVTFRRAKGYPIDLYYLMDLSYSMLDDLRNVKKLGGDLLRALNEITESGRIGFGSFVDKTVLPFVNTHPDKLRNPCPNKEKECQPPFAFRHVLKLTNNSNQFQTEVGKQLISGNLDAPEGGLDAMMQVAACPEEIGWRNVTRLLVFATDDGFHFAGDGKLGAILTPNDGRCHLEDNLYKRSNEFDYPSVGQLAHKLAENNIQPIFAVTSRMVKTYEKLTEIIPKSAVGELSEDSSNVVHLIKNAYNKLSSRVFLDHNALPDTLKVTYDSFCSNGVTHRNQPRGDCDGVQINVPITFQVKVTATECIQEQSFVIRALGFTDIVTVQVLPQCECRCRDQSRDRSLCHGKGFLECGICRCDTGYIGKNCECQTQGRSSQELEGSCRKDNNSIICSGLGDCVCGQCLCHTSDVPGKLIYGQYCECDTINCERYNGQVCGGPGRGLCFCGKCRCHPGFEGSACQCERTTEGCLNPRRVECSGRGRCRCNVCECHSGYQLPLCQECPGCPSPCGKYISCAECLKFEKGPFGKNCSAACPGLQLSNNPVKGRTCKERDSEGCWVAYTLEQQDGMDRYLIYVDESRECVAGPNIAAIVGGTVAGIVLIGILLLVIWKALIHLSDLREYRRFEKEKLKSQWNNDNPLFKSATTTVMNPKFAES

Regarding `COc1cccc(C(=O)NC[C@H](NC(=O)c2ccc(C(=O)NCc3cccc(O)c3)cc2Cl)C(=O)O)c1` [Example 76, N-[2-chloro-4-[[[(3-hydroxyphenyl)methyl]amino]-carbonyl]benzoyl]-3-(3-methoxybenzoylamino)-L-alanine], the IC50 in assay [1] worked out at 6.8 nM; in assay [2] it was 63 nM. For `CC1(C(=O)NC[C@H](NC(=O)c2ccc(C(=O)NCc3cccc(O)c3)cc2Cl)C(=O)O)CCCCC1` [Example 105], in that order: 22 nM and 94 nM. On to `Nc1cccc(C(=O)NC[C@H](NC(=O)c2ccc(C(=O)NCc3cccc(O)c3)cc2Cl)C(=O)O)c1` [Example 118], for which the IC50 was 23 nM in assay [1] and 37 nM in assay [2]. The matching figures for `NS(=O)(=O)c1ccc(C(=O)NC[C@H](NC(=O)c2ccc(C(=O)NCc3cccc(O)c3)cc2Cl)C(=O)O)cc1` [Example 119]: 26 nM and 220 nM. The matching figures for `O=C(NCc1cccc(O)c1)c1ccc(C(=O)N[C@@H](CNC(=O)c2cccc(Cl)c2)C(=O)O)c(Cl)c1` [Example 123]: 6.9 nM and 21 nM.

`O=C(NCc1cccc(O)c1)c1ccc(C(=O)N[C@@H](CNC(=O)c2cccc(F)c2)C(=O)O)c(Cl)c1` [Example 131]: the IC50 in assay [1] was determined as 9.7 nM; in assay [2], 27 nM. Consider `O=C(NCc1cccc(O)c1)c1ccc(C(=O)N[C@@H](CNC(=O)c2cccc(O)c2)C(=O)O)c(Cl)c1` [Example 132], for which the IC50 was found to be 7 nM in assay [1] and 4.9 nM in assay [2]. The matching figures for `Cc1cccc(C(=O)NC[C@H](NC(=O)c2ccc(C(=O)NCc3cccc(O)c3)cc2Cl)C(=O)O)c1` [Example 138]: 10 nM and 31 nM. Regarding `O=C(NCc1cccc(O)c1)c1ccc(C(=O)N[C@@H](CNC(=O)c2ccc(Br)s2)C(=O)O)c(Cl)c1` [Example 155], the IC50 in assay [1] came out at 13 nM; in assay [2], 65 nM. For the molecule `Cc1ccc(C(=O)NC[C@H](NC(=O)c2ccc(C(=O)NCc3cccc(O)c3)cc2Cl)C(=O)O)s1` [Example 160], the IC50 in assay [1] stood at 6.6 nM; in assay [2], 23 nM.

For `O=C(NCc1cccc(O)c1)c1ccc(C(=O)N[C@@H](CNC(=O)c2ccsc2)C(=O)O)c(Cl)c1` [Example 161], the figures for the IC50 in assay [1] and in assay [2] were 12 nM and 44 nM, respectively. Molecule `C[C@@H](NC(=O)c1cc(Cl)c(C(=O)N[C@@H](CNC(=O)c2cccs2)C(=O)O)c(Cl)c1)c1cccc2ccccc12` [Example 346, N-[2,6-dichloro-4-[[[(1R)-1-(1-naphthalenyl)ethyl]amino]carbonyl]benzoyl]-3-[(thiophene-2-carbonyl)amino]-L-alanine] returned an IC50 in assay [2] of 9.7 nM. Same read-out and setting: in the case of `C[C@@H](NC(=O)c1cc(Cl)c(C(=O)N[C@@H](CNC(=O)c2ccccc2)C(=O)O)c(Cl)c1)c1cccc2ccccc12` [Example 347] it was 16.1 nM; in that of `O=C(NCc1cccc(O)c1)c1cc(Cl)c(C(=O)N[C@@H](CNC(=O)c2cccc(F)c2)C(=O)O)c(Cl)c1` [Example 349], 4.7 nM; in that of `O=C(NCc1cccc(O)c1)c1cc(Cl)c(C(=O)N[C@@H](CNC(=O)c2cccc(O)c2)C(=O)O)c(Cl)c1` [Example 350], 0.7 nM. The same measure, in the same setting: to `COc1ccc(C(=O)NC[C@H](NC(=O)c2c(Cl)cc(C(=O)NCc3cccc(O)c3)cc2Cl)C(=O)O)cc1O` [Example 351] belongs 2.7 nM; to `O=C(NCc1cccc(O)c1)c1cc(Cl)c(C(=O)N[C@@H](CNC(=O)c2sccc2Br)C(=O)O)c(Cl)c1` [Example 353], 18.6 nM; to `O=C(NCc1cccc(O)c1)c1cc(Cl)c(C(=O)N[C@@H](CNC(=O)c2ccc(Br)s2)C(=O)O)c(Cl)c1` [Example 354], 4.7 nM. With `Cc1ccc(C(=O)NC[C@H](NC(=O)c2c(Cl)cc(C(=O)NCc3cccc(O)c3)cc2Cl)C(=O)O)s1` [Example 358], the IC50 in assay [2] was determined as 4.3 nM. In the case of `N=C(N)NC[C@H](NC(=O)c1ccc(C(=O)NCc2cccc(O)c2)cc1Cl)C(=O)O` [Example 371, N-[2-chloro-4-[[[(3-hydroxyphenyl)methyl]amino]-carbonyl]benzoyl]-3-(aminoiminomethyl)amino-L-alanine], the IC50 in assay [1] came out at 73 nM. With `O=C(NC[C@H](NC(=O)c1ccc(/C=C/Cc2ccccc2)cc1Cl)C(=O)O)c1cccs1` [Example 373, N-[2-chloro-4-(3-phenyl-1-propenyl)benzoyl]-3-(thiophene-2-carbonyl)amino-L-alanine], the IC50 in assay [1] is 68 nM. On the same count and under the same terms, in the case of `O=C(NC[C@H](NC(=O)c1ccc(C(=O)[C@H]2C[C@@H]2c2ccccc2)cc1Cl)C(=O)O)c1cccs1` [Example 377] it was 160 nM; in that of `O=C(CCc1ccccc1)c1ccc(C(=O)N[C@@H](CNC(=O)c2cccs2)C(=O)O)c(Cl)c1` [Example 378], 75 nM.
